Data on 7 molecules can be found in US20120040920A1, “OLIGOSACCHARIDE ALDONIC ACIDS AND THEIR TOPICAL USE” (priority 1999, published 2012).

Series [1] in a line: antioxidant property, banana peel test method. The note with it: 2×2 cm peels in 5 ml 0.1 M test solution; water control tan within 4 hours. From the text: (§1) An antioxidant may be defined as a substance capable of preventing or inhibiting oxidation. […] The antioxidant property is readily determined by using any one of the following test methods: prevention or retardation of air oxidation of (a) anthralin, (b) hydroquinone, or (c) banana peel. A freshly prepared anthralin solution or cream is bright yellow, and an air oxidized one is brownish or black. A hydroquinone solution or cream is colorless or white color, and an air oxidized one is brownish or black. A freshly peeled banana peel is light yellow in color and an oxidized one ranges in color from tan, dark tan, brown to brownish black.
For example, in control experiments, fresh banana peels cut into sizes of 1×2 cm in 50 mm plastic petri dishes containing 5 ml water at neutral or acidic pH changed in color from white-yellowish to tan within 6 hours at room temperature, and changed to dark tan color during the next period of 24 to 72 hours.
Antioxidant property of an oligosaccharide aldonic acid may also be determined by utilizing banana peel test method as follows.
A fresh ripe banana peel cut into sizes of 2×2 cm has the outer layer light yellow in color. These freshly cut banana peels after exposed to air or immersed in an aqueous solution without an antioxidant in 50 mm plastic petri dishes rapidly changed in color from yellowish to tan within 3 hours, dark tan within 24 hours and brown black after 72 hours. A test substance including a positive control such as vitamin C, citric acid or N-acetylcysteine was prepared as 0.1 M concentration, and each test dish contained 5 ml test solution. Freshly cut banana peels 2×2 cm in sizes were immersed in 5 ml test solutions including known antioxidants and vehicle controls with pH at 7.0 and 4.0. […] The same results were also found for the known antioxidant substances; vitamin C, citric acid and N-acetylcysteine.

The nature of series [2]: antioxidant property, hydroquinone test method. The following applies: oil-in-water cream, 2% hydroquinone, test substance 0.4 M, room temperature, 5 days. It counts as physicochemical.
From the text: as §1
Antioxidant property of an oligosaccharide aldonic acid may also be determined by utilizing hydroquinone test method as follows. Hydroquinone also known as 1,4-dihydroxybenzene is a white powder, and a composition containing hydroquinone without a suitable antioxidant is chemically unstable even at room temperature. For example, hydroquinone 2% in an oil-in-water cream changed in color from white to grey within 2 hours, and the cream became light brown within 48 hours and dark brown after 72 hours at room temperature.

A short description of series [3]: gel matrix formation on evaporation of an aqueous solution at room temperature. It counts as physicochemical. The following applies: for gel matrix formation: 1 g in 1 ml water, 20-25° C., slow evaporation; for acid content of the gel film / water retained in the gel film (gel matrix): by weight, 1 g acid in 1 ml water evaporated at room temperature; for original water evaporated: 1 g acid in 1 ml water, room temperature. From the text:
In contrast to an alpha hydroxyacid and polyhydroxyacid, an oligosaccharide aldonic acid can form a gel matrix when its aqueous solution is evaporated at room temperature. The transparent gel obtained retains certain amount of water forming a clear gel matrix. The amount of water retention depends on individual oligosaccharide aldonic acid. Examples of gel matrix preparations are provided below.
In one example, a gel matrix can be formed when aqueous solution comprising an oligosaccharide aldonic acid is evaporated at room temperature. The transparent gel thus obtained retains certain amount of water forming a clear gel matrix. The amount of water retention depends on individual oligosaccharide aldonic acid. For example, maltobionic acid 1 g in a beaker was dissolved in water 1 ml, and the solution thus obtained was left at room temperature. Fifty percent of the original water had been evaporated at the end of 24 hours, and 57% at the end of 48 hours, and 60% at the end of 72 hours, and no more or minimal evaporation of water could be detected after 72 hours. A clear gel film thus obtained contained 29% water complexed with maltobionic acid molecules. In the same manner, lactobionic acid formed a clear gel matrix with 14% water molecules and cellobionic acid formed a transparent gel with 7% water molecules.
A typical experiment to determine a gel matrix formation of an oligosaccharide aldonic acid may be carried out as follows.
Maltobionic acid 1 g in a beaker of 3.6 cm diameter and 3.6 cm height was dissolved in water 1 ml, and the solution thus obtained was left at room temperature between 20-25° C. to allow a slow evaporation of the water. […] The continuous transparent film thus obtained consisted of 71% maltobionic acid and 29% water by weight, and was formed as a complex gel matrix between maltobionic acid molecules and water molecules.

Series [4] in a line: antioxidant property, anthralin test method. It counts as physicochemical. The note with it: oil-in-water cream, 0.4% anthralin, test substance 0.1 M, 24 hours.
From the text: as §1
Antioxidant property of an oligosaccharide aldonic acid may be determined by utilizing anthralin test method as follows.
Anthralin also known as dithranol is a yellowish powder, and a composition containing anthralin without a suitable antioxidant is chemically unstable even at room temperature. For example, anthralin 0.05% in an oil-in-water cream changed in color from yellow to gray within 24 hours at room temperature, and the cream became brownish within 48 hours. Under anhydrous condition, anthralin 0.05% ointment prepared from white petrolatum 2 parts and mineral oil 1 part by weight changed in color from bright yellow to grayish yellow within 24 hours, and the ointment became brownish after 12 days at room temperature.
Based on the above observations, an oil-in-water cream containing 0.4% anthralin with or without a known antioxidant was used as a positive or vehicle control.

In series [5] the test system is chronic atopic eczema and pruritic dry skin. Kind of series: topical treatment of chronic atopic eczema and pruritic dry skin. The series is classed as in vivo, human. The following applies: 17% cream twice daily, person. An excerpt:
A subject with chronic atopic eczema and pruritic dry skin topically applied twice daily maltobionic acid 17% cream to itchy skin areas of eczema and dry skin lesions for two weeks.

Another series deals with acute erythema on thighs. Kind of series: topical treatment of acute erythema after hot shower with alkaline soap. It counts as in vivo, human. The note with it: 3% partially neutralized cream, left thigh, person; control side persisted. An excerpt: A subject with sensitive skin developed acute erythema on their both thighs after taking hot shower using alkaline soap. They applied 3% partially neutralized maltobionic acid cream on their left thigh and a control cream on their right thigh.

Series [6] concerns xerosis with flaky dry skin. The series is described as follows: topical treatment of xerosis of forearms. The series is classed as in vivo, human. The following applies: 5% water-in-oil cream twice daily, two weeks, person. From the text: A subject, having xerosis with flaky dry skin condition of their forearms topically applied twice daily maltobionic acid 5% water-in-oil cream for two weeks.

On to `CC(=O)N[C@@H](CS)C(=O)O` [N-acetylcysteine, reference compound], for which, in series [1], the “colour change of banana peels” value is given as “same results”. Besides, the “colour change of hydroquinone cream” value in series [2] was “did not change color”.

Consider `O=C(O)[C@H](O)[C@@H](O)[C@H](O[C@@H]1O[C@H](CO)[C@@H](O)[C@H](O)[C@H]1O)[C@H](O)CO` [cellobionic acid], for which the “colour change of hydroquinone cream” value in series [2] is “did not change color”. In addition, in series [3], the gel matrix formation result is on record as “clear continuous gel film was formed”, the “acid content of the gel film” value came out at 93% and the “water retained in the gel film (gel matrix)” value worked out at 7%. Moreover, the “colour change of anthralin cream” value in series [4] is “did not change the color”.

On to `O=C(O)CC(O)(CC(=O)O)C(=O)O` [citric acid, reference compound], for which the “colour change of banana peels” value in series [1] is “same results”. Besides, the “colour change of hydroquinone cream” value in series [2] was “did not change color”.

For the molecule `O=C(O)[C@H](O)[C@@H](O)[C@H](O)[C@H](O)CO` [gluconic acid, reference compound], the gel matrix formation entry in series [3] was “did not form any form of a gel matrix”.

`O=C(O)[C@H](O)[C@@H](O)[C@H](O[C@@H]1O[C@H](CO)[C@H](O)[C@H](O)[C@H]1O)[C@H](O)CO` [maltobionic acid]: the “colour change of banana peels” value in series [1] is listed as “did not change color”. Moreover, the “colour change of hydroquinone cream” value in series [2] is “did not change color”. Moreover, in series [5] (after two weeks), the eczema lesions result is reported as “improved significantly”. Also, in series [5] (within a week), the “condition of treated skin” value is “became smooth and less dry and itchy”. Further, the erythema and itch result with acute erythema on thighs was “disappeared within a few minutes”. Further, the original water evaporated result in series [3] (end of 24 hours) is recorded as “Fifty”; in series [3] (end of 48 hours), 57%; in series [3] (end of 72 hours), 60%; in series [3] (end of 96 hours), 60.5%. For the same molecule, in series [3], the gel matrix formation result was “clear continuous gel film was formed”. The “water retained in the gel film (gel matrix)” value in series [3] and in series [3] (listed as Maltobionic acid) was 29% in each case. In addition, the “acid content of the gel film” value in series [3] (listed as Maltobionic acid) amounted to 71%. For the same molecule, in series [6], the dry skin condition entry is reported as “dry skin condition disappeared completely”. Moreover, the “colour change of anthralin cream” value in series [4] is reported as “did not change the color”.

For the molecule `O=C(O)C(=O)O` [oxalic acid, reference compound], the “colour change of anthralin cream” value in series [4] is given as “did not change the color”.

Regarding `O=C1O[C@H]([C@@H](O)CO)C(O)=C1O` [vitamin C, reference compound], the “colour change of banana peels” value in series [1] is reported as “same results”. The “colour change of hydroquinone cream” value in series [2] is given as “did not change color”. Further, the “colour change of anthralin cream” value in series [4] was “did not change the color”.
